Measurements as given in US12540150B1, “Fluorogenic probe using a Mislow-Evans rearrangement for real-time imaging of hydrogen peroxide” (University of Pittsburgh—Of the Commonwealth System of …, priority 2020, dated 2026).
“And” between values parts separate entries of the source, which are not always exact repeats. Identical values can stand only once.

Tests used:
[1] = Selectivity of 1: reaction with ^1O2; conditions: for Fluorescence: 40 min minus 0 min
Method: Probe 1 was titrated with NaMoO4 and H2O2 to determine whether ^1O2 reacted with the probe 1. A solution of 100 μM 1 in ethanol (20 μL) was added to 5:95 methanol/50 mM phosphate pH 7 buffer (140 μL). Water, 1 mM sodium azide, or 104 U/mL catalase (20 μL) was added to the mixture. NaMoO4·2H2O (11.1 mg) was added to ultrapure water (2.00 mL). This solution was diluted to 20 μM, 200 μM, and 2.00 mM. H2O2 was diluted to 200 μM and 2.00 mM. Equal volumes of NaMoO4 solution and H2O2 were added together, and an aliquot (20 μL) was immediately transferred to the solution containing 1. The fluorescence intensity was measured immediately and again after incubation at 25° C. for 40 min. A large fluorescence increase was observed only in the samples containing […] of both Na2MoO4 and H2O2(FIG. 16 and Table 7). […] 10^4 UmL^−1 catalase was added to the solutions to verify that 1 indeed responded to excess H2O2 that had not reacted with the Na2MoO4. The addition of catalase abolished the fluorescence signal observed in the presence of high concentrations of H2O2(FIG. 16 and Table 7). The fluorescence values in Table 7 are the fluorescence at 40 min minus the fluorescence at 0 min.

[2] = Selectivity of 1: reaction with ClO^−; conditions: for Fluorescence Intensity: pH 7, 25° C., 15 min
Method: Next, it was tested whether OCl^− and ONOO^− (peroxynitrite), would react with 1. A solution of 0, 1, 10, or 22 μM ONOO— in 0.3 M NaOH (20 μL) or 1, 10, 100, or 1000 μM NaOCl in water (20 μL) was added to the wells of a black 96-well plate. A solution of 10 μM 1 in DMSO (560 μL) and 5:95 MeCN/1.2 M phosphate pH 7 buffer (4.48 mL) was made; this solution (180 μL) was transferred to each of the wells. The samples were allowed to incubate at 25° C. for 15 min before the fluorescence was measured. […] This may be attributed to trace amounts of H2O2 in the ONOO^− solution.

[3] = Selectivity of 1: reaction with NO3^−; conditions: for Fluorescence: 15 min minus 0 min
Method: The probe 1 was then exposed to NO3^− at various concentrations. NaNO3 (30.9 mg) was dissolved in ultrapure water (2.00 mL). This solution was diluted to 10 μM, 100 μM, 1.00 mM, and 10.0 mM. H2O2 was diluted to 10 μM, 100 μM, 1.00 mM, and 10.0 mM. A solution of 100 μM 1 in ethanol (20 μL) was added to 5:95 methanol/50 mM pH 7 potassium phosphate buffer (160 μL). The NaNO3 or H2O2 solutions (20 μL) were added to the solution containing 1 and the fluorescence intensity was measured immediately and again after incubation at 25° C. for 15 min. The fluorescence change over the first 15 min was reported for NO3^− in FIG. 21 and Table 12. The fluorescence values in Table 12 are the fluorescence at 15 min minus the fluorescence at 0 min.

[4] = Selectivity of 1 against various ROS and RNS (FIG. 14B); conditions: O2^·−, ^1O2, ·OH, ClO^−, ONOO^−, tBuOOH, NO3^−, NO2, NO·
Method: Following the concentration dependence studies, the selectivity of 1 was assessed against O2^·−, ^1O2, ·OH, ClO^−, ONOO^−, 'BuOOH, NO3^−, NO2, and NO·. […] The production of some of these ROS required H2O2 as a reagent or generated H2O2 as a product, for which we carefully performed control experiments as detailed below. For example, a solution of 100 μM 1 in ethanol (20 μL) was added to 5:95 methanol/50 mM phosphate pH 7 buffer (140 μL). […] A control containing 100 μM 1 in ethanol (20 μL), 5:95 methanol/50 mM phosphate pH 7 buffer (160 μL), and 700 mM H2O2 (20 μL) was also generated. The solutions were allowed to incubate at 25° C. for 15 min prior to measuring fluorescence. […] Therefore, 1 is selective for H2O2 over O2^·−.

Q: With `Oc1ccc2c(c1)Oc1cc(O/C=C/C[Se]c3ccccc3)ccc1[C@@]21OCc2ccccc21` [Compound 1, (S,E)-6′-((3-(Phenylselanyl)prop-1-en-1-yl)oxy)-3H-spiro[isobenzofuran-1,9′-xanthen]-3′-ol] as the compound, how does the “cause of fluorescence increase (reaction with ^1O2)” value [1] read?
A: not by ^1O2 itself

Q: What about the Fluorescence ([1]; NaN3, NaMoO4 0 μM, 0 μM H2O2) of the same compound?
A: 47,427 and 27,816 and 33,822

Q: And the Fluorescence ([1]; NaN3, NaMoO4 0 μM, 10 μM H2O2)?
A: 22,037 and 25,574 and 26,509

Q: And the Fluorescence ([1]; NaN3, NaMoO4 0 μM, 100 μM H2O2)?
A: 86,779 and 47,879 and 71,128

Q: What about the Fluorescence ([1]; NaN3, NaMoO4 1 μM, 0 μM H2O2) of the same compound?
A: 17,056 and 15,590 and 28,737

Q: And the Fluorescence ([1]; NaN3, NaMoO4 1 μM, 10 μM H2O2)?
A: 47,687 and 30,921 and 55,460

Q: And the Fluorescence ([1]; NaN3, NaMoO4 1 μM, 100 μM H2O2)?
A: 75,276 and 58,618 and 52,801

Q: What about the Fluorescence ([1]; NaN3, NaMoO4 10 μM, 0 μM H2O2) of the same compound?
A: 48,985 and 26,189 and 39,286

Q: What about the Fluorescence ([1]; NaN3, NaMoO4 10 μM, 10 μM H2O2) of the same compound?
A: 41,011 and 44,837 and 41,481

Q: And the Fluorescence ([1]; NaN3, NaMoO4 10 μM, 100 μM H2O2)?
A: 128,720 and 99,199 and 137,922

Q: And the Fluorescence ([1]; NaN3, NaMoO4 100 μM, 0 μM H2O2)?
A: 41,150 and 60,360 and 31,422

Q: And the Fluorescence ([1]; NaN3, NaMoO4 100 μM, 10 μM H2O2)?
A: 36,764 and 62,417 and 61,596

Q: What about the Fluorescence ([1]; NaN3, NaMoO4 100 μM, 100 μM H2O2) of the same compound?
A: 427,359 and 459,433 and 473,881

Q: And the Fluorescence ([1]; catalase, NaMoO4 1 μM, 100 μM H2O2)?
A: 54,776 and 34,302 and 31,904

Q: What about the Fluorescence ([1]; catalase, NaMoO4 10 μM, 100 μM H2O2) of the same compound?
A: 66,499 and 39,161 and 54,221

Q: And the Fluorescence ([1]; catalase, NaMoO4 100 μM, 100 μM H2O2)?
A: 137,047 and 103,725 and 102,097

Q: What about the Fluorescence ([1]; no additive, NaMoO4 0 μM, 0 μM H2O2) of the same compound?
A: 59,711 and 30,413 and 38,407

Q: What about the Fluorescence ([1]; no additive, NaMoO4 0 μM, 100 μM H2O2) of the same compound?
A: 48,948 and 86,970 and 68,803

Q: And the Fluorescence ([1]; no additive, NaMoO4 1 μM, 0 μM H2O2)?
A: 36,829 and 38,478 and 40,456

Q: What about the Fluorescence ([1]; no additive, NaMoO4 1 μM, 10 μM H2O2) of the same compound?
A: 27,103 and 23,437 and 25,142

Q: And the Fluorescence ([1]; no additive, NaMoO4 1 μM, 100 μM H2O2)?
A: 64,673 and 74,322 and 79,262

Q: What about the Fluorescence ([1]; no additive, NaMoO4 10 μM, 10 μM H2O2) of the same compound?
A: 33,243 and 34,233 and 26,543

Q: What about the Fluorescence ([1]; no additive, NaMoO4 10 μM, 100 μM H2O2) of the same compound?
A: 113,217 and 132,450 and 119,014

Q: What about the Fluorescence ([1]; no additive, NaMoO4 100 μM, 0 μM H2O2) of the same compound?
A: 24,734 and 26,617 and 17,702

Q: What about the Fluorescence ([1]; no additive, NaMoO4 100 μM, 10 μM H2O2) of the same compound?
A: 38,768 and 55,874 and 53,722

Q: And the Fluorescence ([1]; no additive, NaMoO4 100 μM, 100 μM H2O2)?
A: 468,686 and 476,166 and 482,448

Q: And the “fluorescence change with increasing concentrations of OCl^−” value [2]?
A: No statistically significant increase in fluorescence intensity

Q: And the “Fluorescence Intensity” value ([2]; 100 nM NaOCl)?
A: 33,503 and 25,413 and 28,088

Q: And the “Fluorescence Intensity” value ([2]; 1.0 μM NaOCl)?
A: 28,551 and 25,590 and 33,211

Q: What about the “Fluorescence Intensity” value ([2]; 10 μM NaOCl) of the same compound?
A: 41,611 and 35,271 and 35,308

Q: And the “Fluorescence Intensity” value ([2]; 100 μM NaOCl)?
A: 46,362 and 40,070 and 41,695

Q: And the “Fluorescence Intensity” value ([2]; no ROS)?
A: 30,591 and 24,478 and 26,025

Q: What about the “reaction with NO3^−” value [3] of the same compound?
A: did not react

Q: What about the Fluorescence ([3]; 0 μM NO3^− or H2O2, pH 7, 25° C.) of the same compound?
A: 24,359 and 26,870 and 26,226

Q: And the Fluorescence ([3]; 0.1 μM H2O2)?
A: 58,172 and 52,104 and 52,249

Q: And the Fluorescence ([3]; 0.1 μM NO3^−)?
A: 34,507 and 35,439 and 40,487

Q: And the Fluorescence ([3]; 1 μM H2O2)?
A: 266,770 and 242,313 and 222,834

Q: And the Fluorescence ([3]; 1 μM NO3^−)?
A: 43,966 and 35,385 and 47,433

Q: And the “reaction with other ROS and RNS relative to H2O2” value [4]?
A: little reaction was observed
